Measured values: ChEMBL document CHEMBL1141479 (Bioorg Med Chem Lett, 2008)
The source made the active and inactive calls. No cut-off for these calls is given here.

Key:
[1] = biological target: T1, Progesterone receptor (Homo sapiens) (UniProt P06401); experiment: (§1) Inhibition of progesterone receptor expressed in CHO cells by luciferase assay; type: cell-based
T1 sequence (whole entry): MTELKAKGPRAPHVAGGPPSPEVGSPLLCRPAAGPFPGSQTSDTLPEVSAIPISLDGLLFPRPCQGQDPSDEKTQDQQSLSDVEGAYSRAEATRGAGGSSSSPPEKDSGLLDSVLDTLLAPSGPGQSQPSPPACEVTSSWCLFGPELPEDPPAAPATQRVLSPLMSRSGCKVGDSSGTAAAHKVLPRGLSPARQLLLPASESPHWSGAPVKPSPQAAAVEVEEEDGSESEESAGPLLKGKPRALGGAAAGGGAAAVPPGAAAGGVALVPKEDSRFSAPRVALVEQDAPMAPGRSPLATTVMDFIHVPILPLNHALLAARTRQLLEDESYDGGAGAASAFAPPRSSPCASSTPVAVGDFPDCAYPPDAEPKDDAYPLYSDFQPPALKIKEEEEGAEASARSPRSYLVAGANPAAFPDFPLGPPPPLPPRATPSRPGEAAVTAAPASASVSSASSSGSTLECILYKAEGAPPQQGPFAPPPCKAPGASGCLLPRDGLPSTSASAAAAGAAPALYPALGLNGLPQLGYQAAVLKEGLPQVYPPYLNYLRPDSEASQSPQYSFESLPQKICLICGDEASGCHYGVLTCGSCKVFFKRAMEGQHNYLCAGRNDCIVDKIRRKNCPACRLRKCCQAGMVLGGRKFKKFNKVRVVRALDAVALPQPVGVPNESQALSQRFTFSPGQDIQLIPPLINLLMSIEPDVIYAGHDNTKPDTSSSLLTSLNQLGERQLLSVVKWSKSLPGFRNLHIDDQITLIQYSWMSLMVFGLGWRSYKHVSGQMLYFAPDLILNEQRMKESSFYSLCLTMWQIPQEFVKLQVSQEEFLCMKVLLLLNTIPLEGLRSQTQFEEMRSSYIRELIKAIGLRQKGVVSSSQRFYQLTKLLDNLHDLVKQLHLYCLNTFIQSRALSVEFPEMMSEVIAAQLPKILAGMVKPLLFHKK

[2] = biological target: T1, Progesterone receptor (Homo sapiens); experiment: (§2) Agonist activity at progesterone receptor expressed in CHO cells by luciferase assay; type: functional, cell-based
Progesterone receptor [3] = biological target: T2, Progesterone receptor (Homo sapiens, UniProt P06401); experiment: as §1; type: cell-based
T2 sequence (P06401 whole entry): T1 sequence (whole entry)

Progesterone receptor [4] = biological target: T2, Progesterone receptor; experiment: as §2; type: functional, cell-based

IC50 (Progesterone receptor [3]) [nM]	EC50 (Progesterone receptor [4]) [nM]	SMILES	Activity [1]	Activity [2]
43	10.6	O=C(NC1CCCN2c3cc(Cl)ccc3Oc3ccccc3C12)C(F)(F)F (racemic)		
	9.8	CN1c2ccccc2[C@@H]2[C@@H](NC(=O)C(F)(F)F)CCCN2c2cc(Cl)ccc21		
314		CC(C)CNC(=S)N[C@H]1CCCN2c3cc(Cl)ccc3Oc3ccccc3[C@H]12		inactive
	258	CC(=O)c1ccc2c(c1)N1CCC[C@H](NC(=O)C(F)(F)F)[C@H]1c1ccccc1O2		
	1.6	O=C(N[C@H]1CCCN2c3c(ccc(Cl)c3Cl)Oc3ccccc3[C@H]12)C(F)(F)F		
	1340	CC(C)CN[C@H]1CCCN2c3cc(Cl)ccc3Oc3ccccc3[C@H]12		
193	4450	CC(=O)N[C@H]1CCCN2c3cc(Cl)ccc3Oc3ccccc3[C@H]12		
	54	O=C(N[C@@H]1CCCN2c3cc(Cl)ccc3Oc3ccccc3[C@@H]12)C(F)(F)F (racemic)		
318	38	O=C(N[C@H]1CCCN2c3cc(Cl)c(Cl)cc3Oc3ccccc3[C@H]12)C(F)(F)F		
	0.96	CC(=O)c1cccc2c1N1CCC[C@H](NC(=O)C(F)(F)F)[C@H]1c1ccccc1O2		
730	198	O=C(N[C@H]1CCCN2c3cc(F)ccc3Oc3ccccc3[C@H]12)C(F)(F)F		
	0.81	C=Cc1cccc2c1N1CCC[C@H](NC(=O)C(F)(F)F)[C@H]1c1ccccc1O2		
	> 1000	C=Cc1ccc2c(c1)N1CCC[C@H](NC(=O)C(F)(F)F)[C@H]1c1ccccc1O2		
	450	CN(C(=O)C(F)(F)F)[C@H]1CCCN2c3cc(Cl)ccc3Oc3ccccc3[C@H]12		

The remaining lines, values behind:

SMILES	IC50 (Progesterone receptor [3]) [nM]	EC50 (Progesterone receptor [4]) [nM]	Activity [1]	Activity [2]
N[C@H]1CCCN2c3ccccc3Oc3ccccc3[C@H]12			inactive	inactive
O=C(N[C@H]1CCCN2c3cc(Cl)ccc3Oc3ccccc3[C@H]12)C(F)(F)F	4.3	3		
CCN[C@H]1CCCN2c3ccccc3Oc3ccccc3[C@H]12			inactive	inactive
O=C(N[C@H]1CCCN2c3cc(Cl)ccc3Sc3ccccc3[C@H]12)C(F)(F)F		2.8		
FC(F)(F)C(=S)N[C@H]1CCCN2c3cc(Cl)ccc3Oc3ccccc3[C@H]12		1.3		
O=C(N[C@H]1CCCN2c3c(Cl)cccc3Oc3ccccc3[C@H]12)C(F)(F)F		19		
N=C(N[C@H]1CCCN2c3cc(Cl)ccc3Oc3ccccc3[C@H]12)C(F)(F)F	133	10.3		
O=C(N[C@H]1CCCN2c3cc(Cl)ccc3Oc3ccccc3[C@H]12)OCCl		598		
O=C(N[C@H]1CCCN2c3cc(Cl)ccc3Cc3ccccc3[C@H]12)C(F)(F)F	26	2		
O=C(N[C@H]1CCCN2c3ccccc3Oc3ccccc3[C@H]12)C(F)(F)F		222		
N[C@H]1CCCN2c3cc(Cl)ccc3Oc3ccccc3[C@H]12		513	inactive	
O=C(N[C@H]1CCCN2c3ccc(Cl)cc3Oc3ccccc3[C@H]12)C(F)(F)F	2220	993		
